Measurements published in patent publication US20240116942A1, “SELECTIVE CDK 4/6 INHIBITOR CANCER THERAPEUTICS” (LUNELLA BIOTECH, INC., priority 2020, published 2024).

System: MCF7 cells
Experiment: mammosphere assay
Assay type: cell-based
Settings: compared to Trilaciclib
Excerpt: Moreover, CSCs are strikingly resilient and highly resistant to cellular stress, which allows them to undergo anchorage-independent growth, especially under conditions of low-attachment. As a consequence, they form 3D spheroids, which retain the properties of CSCs and stem cell progenitors. In contrast, when subjected to growth in suspension, most “bulk” cancer cells die, via anoikis—a specialized type of apoptosis. […] Therefore, 3D spheroid formation is a functional read-out for stemness in epithelial cancer cells and allows one to enrich for a population of epithelioid cells with a stem-like phenotype. These 3D spheroids are also known as mammospheres when they are prepared using breast cancer cells, such as MCF7, among others.

SMILES | inhibition of MCF7 cells in the mammosphere assay
CCCCCCCCCCCCCC(=O)N1CCN(c2ccc(Nc3ncc4cc5n(c4n3)C3(CCCCC3)CNC5=O)nc2)CC1 [formula [2]] | remarkably improved inhibition
CCCCCCCCCCCCCCCC(=O)CCN1CCN(c2ccc(Nc3ncc4cc5n(c4n3)C3(CCCCC3)CNC5=O)nc2)CC1 [formula [3]] | remarkably improved inhibition

System: CSCs (3D tumor sphere formation)
Experiment: not given
Settings: mitochondrial inhibitors; background statement; cited from earlier work

SMILES | 3D tumor sphere formation
Cc1n[nH]c(C)c1Cc1sc2c(c1C(=O)N1C[C@H](O)CO1)c(=O)n(C)c(=O)n2CC(C)C [AR-C155858] | successfully blocked
O=C(/C=C/c1ccc(O)c(O)c1)OCCc1ccccc1 [CAPE] | successfully blocked
CCCCC[C@H](CC(=O)NO)C(=O)N[C@H](C(=O)N1CCC[C@H]1CO)C(C)C [actinonin] | successfully blocked
CC[C@H]1OC(=O)[C@H](C)[C@@H](O[C@H]2C[C@@](C)(OC)[C@@H](O)[C@H](C)O2)[C@H](C)[C@@H](O[C@@H]2O[C@H](C)C[C@H](N(C)C)[C@H]2O)[C@](C)(O)C[C@@H](C)CN(C)[C@H](C)[C@@H](O)[C@]1(C)O [azithromycin] | successfully blocked
COc1nc2ccc(Br)cc2cc1[C@@H](c1ccccc1)[C@@](O)(CCN(C)C)c1cccc2ccccc12 [bedaquiline] | successfully blocked
COc1ccc2cc3[n+](cc2c1OC)CCc1cc2c(cc1-3)OCO2 [berberine] | successfully blocked
COc1ccc([C@@H]2CC(=O)c3c(O)cc(O[C@@H]4O[C@H](COC(=O)CC(C)(O)CC(=O)O)[C@@H](O)[C@H](O)[C@H]4O[C@@H]4O[C@@H](C)[C@H](O)[C@@H](O)[C@H]4O)cc3O2)cc1O (stereo partly drawn) [brutieridin] | successfully blocked
C[C@@H]1O[C@@H](O[C@@H]2[C@@H](Oc3cc(O)c4c(c3)O[C@H](c3ccc(O)cc3)CC4=O)O[C@@H](COC(=O)C[C@@](C)(O)CC(=O)O)[C@H](O)[C@H]2O)[C@@H](O)[C@H](O)[C@H]1O [melitidin] | successfully blocked
CC[C@H]1/C=C/C=C/C[C@@H](C)[C@H](O)[C@@](C)(O)C(=O)[C@@H](C)[C@H](O)[C@@H](C)C(=O)[C@@H](C)[C@H](O)[C@@H](C)/C=C/C(=O)O[C@@H]2[C@H](C)[C@H](CC1)O[C@]1(CC[C@H](C)[C@H](C[C@@H](C)O)O1)[C@H]2C [oligomycin] | successfully blocked
CN(C)c1cc(NC(=O)CNC(C)(C)C)c(O)c2c1C[C@H]1C[C@H]3[C@H](N(C)C)C(O)=C(C(N)=O)C(=O)[C@@]3(O)C(O)=C1C2=O [tigecycline] | successfully blocked
